This is an account of results in ChEMBL document CHEMBL1153760, “Identification and structure-activity relationships of chromene-derived selective estrogen receptor modulators for treatment of postmenopausal symptoms” (J Med Chem, 2009).

As usually defined, the inhibition in vivo is the change of the read-out against control, counted positive when it falls. In general, IC50 refers to the concentration that inhibits the measured activity by half.

For assay [1], the system named is Rattus norvegicus. The assay can be described thus: Uterotropic activity in rat assessed as stimulation of estrone-induced uterine weight at 1 mg/kg, po QD after 3 days. The following applies: Uterus, 72 h. Format: functional.
The species named for assay [2] is Rattus norvegicus. In words: animal or person. The following applies: Uterus, 72 h, route oral. Format: functional.
The target in another assay is Estrogen receptor beta (Homo sapiens, UniProt Q92731). The assay can be described thus: Inhibition of fluormone ES2 binding to estrogen receptor beta after 1 hr by fluorescence polarization assay. (In general: Fluorescence polarisation rises when a labelled molecule tumbles more slowly, as on binding a larger partner.)
In assay [3] the target is T1, Estrogen receptor (Homo sapiens, UniProt P03372).
T1 sequence (P03372 whole entry): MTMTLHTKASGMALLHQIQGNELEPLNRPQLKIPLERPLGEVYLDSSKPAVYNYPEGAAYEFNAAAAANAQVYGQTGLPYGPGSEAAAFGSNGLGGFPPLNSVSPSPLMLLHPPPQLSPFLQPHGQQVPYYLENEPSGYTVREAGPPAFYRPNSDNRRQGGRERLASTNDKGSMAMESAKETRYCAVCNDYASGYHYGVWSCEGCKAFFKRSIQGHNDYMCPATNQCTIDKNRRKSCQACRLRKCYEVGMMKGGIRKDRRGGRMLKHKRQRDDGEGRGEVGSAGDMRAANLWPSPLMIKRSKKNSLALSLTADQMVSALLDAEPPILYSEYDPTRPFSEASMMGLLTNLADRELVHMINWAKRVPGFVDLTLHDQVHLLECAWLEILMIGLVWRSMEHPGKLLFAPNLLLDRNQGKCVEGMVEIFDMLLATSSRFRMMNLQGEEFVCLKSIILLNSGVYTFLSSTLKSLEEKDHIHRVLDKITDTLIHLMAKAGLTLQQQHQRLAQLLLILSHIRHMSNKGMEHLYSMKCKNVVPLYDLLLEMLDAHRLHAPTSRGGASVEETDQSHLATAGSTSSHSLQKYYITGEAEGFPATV
In words: Displacement of radiolabeled estrogen from estrogen receptor alpha by scintillation counting.

Assay [4] addresses T1, Estrogen receptor. The assay can be described thus: Antagonist activity at estrogen receptor in human Ishikawa cells assessed as 17-beta-estradiol-induced alkaline phosphatase activity after 3 days by chemiluminescence assay. Type of assay: functional, cell-based.

SMILES strings stand for the structures.

Estrogen receptor beta, sequence (Q92731 whole entry): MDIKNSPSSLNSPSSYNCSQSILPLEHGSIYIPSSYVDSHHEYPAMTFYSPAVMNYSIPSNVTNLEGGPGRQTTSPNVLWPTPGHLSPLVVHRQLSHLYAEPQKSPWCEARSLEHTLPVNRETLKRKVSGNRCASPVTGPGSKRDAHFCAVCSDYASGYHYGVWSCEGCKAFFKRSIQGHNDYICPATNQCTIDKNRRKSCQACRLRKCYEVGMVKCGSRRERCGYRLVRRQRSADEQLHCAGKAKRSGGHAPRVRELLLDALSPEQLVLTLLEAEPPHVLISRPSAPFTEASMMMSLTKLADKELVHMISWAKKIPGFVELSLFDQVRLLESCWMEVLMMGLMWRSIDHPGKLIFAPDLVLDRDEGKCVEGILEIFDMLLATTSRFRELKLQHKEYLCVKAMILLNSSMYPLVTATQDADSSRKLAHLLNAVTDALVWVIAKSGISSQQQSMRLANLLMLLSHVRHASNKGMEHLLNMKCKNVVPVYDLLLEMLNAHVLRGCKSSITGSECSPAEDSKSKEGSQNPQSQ

For the molecule `CN(C)CCOc1ccc([C@@H]2Oc3ccccc3C3=C2c2ccc(O)cc2OCC3)cc1`, the stimulation at 1 mg/kg in the assay with Rattus norvegicus [1] came out at 70%. The inhibition in vivo at 1 mg/kg in the assay listed under Rattus norvegicus [2] was 18%. The IC50 at Estrogen receptor beta came to 0.023 µM.
Turning to `CCN(CC)CCOc1ccc([C@@H]2Oc3ccccc3C3=C2c2ccc(O)cc2OCC3)cc1`, the IC50 on Estrogen receptor [3] came out at 0.009 µM; at Estrogen receptor [4], 0.133 µM; at Estrogen receptor beta, 0.028 µM. Further, the stimulation at 1 mg/kg in the assay with Rattus norvegicus [1] was determined as 100%. The inhibition in vivo at 1 mg/kg in the assay filed under Rattus norvegicus [2] came to 30%.
Consider `O=C(O)CCOc1ccc([C@H]2Oc3cc(O)ccc3C3=C2c2ccc(O)cc2OCC3)cc1`, for which the IC50 on Estrogen receptor [3] is 0.12 µM; at Estrogen receptor [4], more than 10 µM; on Estrogen receptor beta, 0.25 µM. The inhibition in vivo at 1 mg/kg in the assay listed under Rattus norvegicus [2] is 0%.
For `Oc1ccc2c(c1)O[C@H](c1ccc(OCCN3CCOCC3)cc1)C1=C2CCOc2cc(O)ccc21`, in that order: 0.0016 µM, 0.043 µM, 0.035 µM and 40%.
In the same order, the values of `CCN(CC)CCOc1ccc([C@H]2Oc3cc(F)ccc3C3=C2c2ccc(O)cc2OCC3)cc1` are 0.005 µM, 0.113 µM, 0.108 µM and 80%.
In the case of `O=C(O)CCOc1ccc([C@@H]2Oc3cc(O)ccc3C3=C2c2ccc(O)cc2OCC3)cc1`, the IC50 on Estrogen receptor [3] is 0.58 µM; on Estrogen receptor [4], more than 10 µM; at Estrogen receptor beta it was 0.044 µM. Besides, the inhibition in vivo at 1 mg/kg in the assay listed under Rattus norvegicus [2] came to 0%.
In the case of `COC(=O)COc1ccc(C2Oc3cc(O)ccc3C3=C2c2ccc(O)cc2OCC3)cc1` (centres undefined), the values for the IC50 on Estrogen receptor [3], at Estrogen receptor [4] and on Estrogen receptor beta were 0.0048 µM, more than 10 µM and 0.016 µM, respectively. In the assay filed under Rattus norvegicus [2], the inhibition in vivo at 1 mg/kg turned out to be 0%.
Regarding `Oc1ccc2c(c1)O[C@@H](c1ccc(OCCCN3CCCCC3)cc1)C1=C2CCOc2cc(O)ccc21`, the values for the IC50 on Estrogen receptor [3], at Estrogen receptor [4] and on Estrogen receptor beta were 0.055 µM, 0.59 µM and 0.019 µM, respectively. Besides, the inhibition in vivo at 1 mg/kg in the assay listed under Rattus norvegicus [2] was found to be 15%.
With `CN(C)CCOc1ccc([C@@H]2Oc3cc(O)ccc3C3=C2c2ccccc2OCC3)cc1`, the results for the IC50 at Estrogen receptor [3], on Estrogen receptor [4] and on Estrogen receptor beta were 0.0111 µM, 0.158 µM and 0.03 µM, respectively. Besides, in the assay filed under Rattus norvegicus [2], the inhibition in vivo at 1 mg/kg worked out at 20%.
On to `Oc1ccc2c(c1)OCCC1=C2[C@@H](c2ccc(OCCN3CCCCCC3)cc2)Oc2ccccc21`, for which the IC50 at Estrogen receptor [3] was found to be 0.011 µM; at Estrogen receptor [4], 0.293 µM; on Estrogen receptor beta, 0.125 µM. Also, in the assay listed under Rattus norvegicus [2], the inhibition in vivo at 1 mg/kg stood at 110%.
Turning to `Oc1ccc2c(c1)O[C@H](c1cccc(OCCN3CCCCC3)c1)C1=C2CCOc2cc(O)ccc21`, the IC50 at Estrogen receptor [3] was 0.15 µM; on Estrogen receptor [4], more than 10 µM; on Estrogen receptor beta, 0.38 µM. Besides, in the assay listed under Rattus norvegicus [2], the inhibition in vivo at 1 mg/kg came out at 0%.
